Data on 24 compounds can be found in ChEMBL document CHEMBL3217565, “Conformational effects on potency of thioimidazoles and dihydrothiazolines” (Medchemcomm, 2011).

What is called IC50 is the concentration needed to halve the response being measured.

Test [1] concerns the target T1, Mitogen-activated protein kinase 14 (Homo sapiens, UniProt Q16539). The test is described as follows: Inhibition of p38-alpha MAPK (unknown origin) after 3 hrs.
The target in test [2] is T1, Mitogen-activated protein kinase 14. Nature of the test: Ratio of SB203580 IC50 to compound IC50 for p38-alpha MAPK (unknown origin).

Molecules are shown by their SMILES.

T1 sequence (Q16539 whole entry): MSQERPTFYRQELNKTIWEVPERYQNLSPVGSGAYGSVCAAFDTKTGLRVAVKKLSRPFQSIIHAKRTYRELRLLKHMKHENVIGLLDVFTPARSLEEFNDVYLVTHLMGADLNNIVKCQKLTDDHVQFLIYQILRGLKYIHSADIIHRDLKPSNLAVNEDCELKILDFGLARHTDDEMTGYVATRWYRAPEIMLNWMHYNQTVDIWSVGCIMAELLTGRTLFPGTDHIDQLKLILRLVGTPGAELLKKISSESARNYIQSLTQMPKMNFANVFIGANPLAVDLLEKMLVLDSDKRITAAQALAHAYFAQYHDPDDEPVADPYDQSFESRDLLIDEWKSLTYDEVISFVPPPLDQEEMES

As for `Cc1ccc(C(=O)Nc2cc(-c3c(-c4ccc(F)cc4)nc4n3CCS4)ccn2)cc1F`, half-maximal inhibition in test [1] (IC50) required 29 nM. Also, in test [2], the Ratio IC50 was 0.96. As to `CSc1nc(-c2ccc(F)cc2)c(-c2ccnc(NC(=O)c3ccc(C)c(F)c3)c2)[nH]1`, in test [2], the Ratio IC50 turned out to be 1.93. Consider `CSc1nc(-c2ccc(F)cc2)c(-c2ccnc(NC(=O)c3ccco3)c2)n1C`, for which the IC50 in test [1] is 173 nM. Also, the Ratio IC50 in test [2] came out at 0.35. `CSc1nc(-c2ccc(F)cc2)c(-c2ccnc(NC(=O)c3ccccc3)c2)n1C` returned a concentration for half-maximal inhibition (IC50) in test [1] of 337 nM. Moreover, the Ratio IC50 in test [2] was 0.18. Compound `CSc1nc(-c2ccc(F)cc2)c(-c2ccnc(NC(=O)c3cc4ccccc4o3)c2)n1C` displayed an IC50 in test [1] of 430 nM. Besides, the Ratio IC50 in test [2] is 0.1. For `CSc1nc(-c2ccc(F)cc2)c(-c2ccnc(NC(=O)C3CC3c3ccccc3)c2)n1C` (stereo not drawn), in that order: 186 nM and 0.22.

Consider `O=C(Cc1ccc(F)cc1)Nc1cc(-c2c(-c3ccc(F)cc3)nc3n2CCS3)ccn1`, for which half-maximal inhibition in test [1] (IC50) required 46 nM. The Ratio IC50 in test [2] was 1.93. The corresponding values for `O=C(Nc1cc(-c2c(-c3ccc(F)cc3)nc3n2CCS3)ccn1)c1cc2ccccc2o1` are 115 nM and 0.77. For the compound `O=C(Nc1cc(-c2c(-c3ccc(F)cc3)nc3n2CCS3)ccn1)c1ccco1`, it took 140 nM to reach half-maximal inhibition in test [1] (IC50). The Ratio IC50 in test [2] is 0.63. The corresponding values for `CSc1nc(-c2ccc(F)cc2)c(-c2ccnc(NC(=O)c3ccc(C)c(F)c3)c2)n1C` are 411 nM and 0.1. For `O=C(Nc1cc(-c2c(-c3ccc(F)cc3)nc3n2CCS3)ccn1)c1ccccc1`, in that order: 83 nM and 0.89.

With `CSc1nc(-c2ccc(F)cc2)c(-c2ccnc(NC(=O)Cc3ccccc3)c2)n1C`, inhibition in test [1] was half-maximal at 498 nM (IC50). For the same compound, in test [2], the Ratio IC50 came out at 0.05.

Consider `CSc1nc(-c2ccc(F)cc2)c(-c2ccnc(NC(=O)c3cc4ccccc4o3)c2)[nH]1`, for which, in test [2], the Ratio IC50 was determined as 0.7. Consider `O=C(Nc1cc(-c2c(-c3ccc(F)cc3)nc3n2CCS3)ccn1)c1ccc(F)cc1`, for which the IC50 in test [1] worked out at 36 nM. Moreover, the Ratio IC50 in test [2] was 1.44. The corresponding values for `CSc1nc(-c2ccc(F)cc2)c(-c2ccnc(NC(=O)c3ccccc3)c2)[nH]1` are 19 nM and 1.36. For `O=C(Cc1ccccc1)Nc1cc(-c2c(-c3ccc(F)cc3)nc3n2CCS3)ccn1`, in that order: 46 nM and 0.97.

On to `CSc1nc(-c2ccc(F)cc2)c(-c2ccnc(NC(=O)Cc3ccc(F)cc3)c2)[nH]1`, for which the Ratio IC50 in test [2] amounted to 3.55. Turning to `O=C(Nc1cc(-c2c(-c3ccc(F)cc3)nc3n2CCS3)ccn1)C1CC1c1ccccc1` (stereo not drawn), the 50% inhibitory concentration (IC50) in test [1] is 20 nM. In addition, the Ratio IC50 in test [2] was found to be 1.4.

As to `CSc1nc(-c2ccc(F)cc2)c(-c2ccnc(NC(=O)C3CC3c3ccccc3)c2)[nH]1` (stereo not drawn), in test [1], the IC50 was 20 nM. The Ratio IC50 in test [2] amounted to 1.85. As to `CSc1nc(-c2ccc(F)cc2)c(-c2ccnc(NC(=O)Cc3ccccc3)c2)[nH]1`, in test [1], the IC50 stood at 22 nM. The Ratio IC50 in test [2] came to 1.23. The corresponding values for `CSc1nc(-c2ccc(F)cc2)c(-c2ccnc(NC(=O)c3ccc(F)cc3)c2)[nH]1` are 44 nM and 0.61. `CSc1nc(-c2ccc(F)cc2)c(-c2ccnc(NC(=O)Cc3ccc(F)cc3)c2)n1C`: the Ratio IC50 in test [2] stood at 0.24. `CSc1nc(-c2ccc(F)cc2)c(-c2ccnc(NC(=O)c3ccc(F)cc3)c2)n1C`: in test [1], the midpoint of inhibition, the IC50, lay at 396 nM. The Ratio IC50 in test [2] is 0.16. On to `CSc1nc(-c2ccc(F)cc2)c(-c2ccnc(NC(=O)c3ccco3)c2)[nH]1`, for which, in test [2], the Ratio IC50 came to 1.46.
